Entries after “also recorded” stand apart in the source; their conditions may differ.
B1: granulocyte-colony stimulating factor (protein, UniProt P09919 31-207, looked up)
Granulocyte …: TPLGPASSLPQSFLLKCLEQVRKIQGDGAALQEKLVSECATYKLCHPEELVLLGHSLGIPWAPLSSCPSQALQLAGCLSQLHSGLFLYQGLLQALEGISPELGPTLDTLQLDVADFATTIWQQMEELGMAPALQPTQGAMPAFASAFQRRAGGVLVASHLQSFLEVSYRVLRHLAQP
notes: granulocyte-colony stimulating factor, s.c. injected daily at 5 μg/mouse

Legend:
[1] = system: blood platelets; experiment: Blood platelet counts in healthy mice after s.c. injection; format: in vivo, C57BL/6 mice; conditions: for Platelets (×10^3): blood at day 5, s.c., 4F-benzoyl-TN14003 100 ug/mouse (5 mg/Kg) once a day for 5 days, TPO 0.5 ug/mouse 3 times once a day (days 3-5 in combination); for % increase (platelet counts): versus PBS control, day 5, same regimens as platelet counts
Description: Female C57BL/6 mice (7-8 weeks old) were purchased from Harlan Israel and maintained under specific pathogen-free conditions at the Hebrew University Animal Facility (Jerusalem, Israel).
(§1) 4F-benzoyl-TN14003 and Thrombopoietin were reconstituted in PBS at various concentrations. Mice were injected subcutaneously in a total volume of 200 μl. 4F-benzoyl-TN14003 (100 ug/mouse, 5 mg/Kg) was injected for 5 days, once a day and at day 5 blood was collected and tested for platelets counts and hematopoietic colonies were tested in the bone marrow. Thrombopoietin was injected 3 times once a day, at (0.5 ug/mouse), and blood was collected and tested for platelets counts and hematopoietic colonies were tested in the bone marrow at day 5. In another group 4F-benzoyl-TN14003 (100 ug/mouse) was injected for 5 days, once a day and at days 3, 4 and 5 mice were further injected with Thrombopoietin (namely 3 times once a day, at 0.5 ug/mouse). Blood was collected and tested for platelets counts and hematopoietic colonies were tested in the bone marrow at day 5. Control mice were injected with PBS at the appropriate volume and blood was collected and tested for platelets counts and hematopoietic colonies in the bone marrow at day 5.
In the experiments described in FIG. 2, mice were injected subcutaneously with 4F-benzoyl-TN14003 at a dose of 5 mg/kg, administered either as a once daily injection or divided into two doses administered b.i.d. Blood platelet levels were measured 1, 2 or 3 days later.
In FIG. 3, “Male control” and “Female control” indicate PBS-treated male and female mice, respectively; “Male+4FB-T140” and “Female+4FB-T140” indicate male or female mice treated with 4F-benzoyl-TN14003 (5 mg/kg)

[2] = system: blood platelets; experiment: Clinical study: single dose in Multiple Myeloma patients receiving Cyclophosphamide and G-CSF, blood platelet levels; format: in vivo, human
Description: A Phase […], non-Randomized, Open Label, Single Dose, Dose-Escalation, Safety Study of 4F-benzoyl-TN14003 was conducted in patients with Multiple Myeloma (MM) receiving G-CSF for inducing mobilization of progenitor stem cells from the Bone Marrow to the peripheral blood.
All eligible patients received, in an ambulatory setting, as part of their planned therapy: Cyclophosphamide—(the generic name for Cytoxan, Neosar), 4 gr/m^2 according to the accepted MM practice. G-CSF (neupogen) was initiated 5 days later and continued until the end of stem cell collection, administered SC at 5 μg/kg per day every day after 18:00. Monitoring the WBC and platelets was done after 7 and 10 days, and until stem cell collection. Stem cell collection was performed according to the protocol of WBC over 1,000 cells.
4F-benzoyl-TN14003 was injected after 10 days, as a single dose of 30, 100, 300 or 900 μg/Kg. The follow-up post injection included counting WBC and platelets levels at points of 30 min, 1 hr, 2 hr, 4 hr, 8 hr, 24 hr.
MM patients undergoing chemotherapy with Cyclophosphamide, received G-CSF according to a clinical protocol for inducing HPC mobilization for subsequent harvesting and transplantation. 10 days after Cyclophosphamide and G-CSF treatment, the patients received 4F-benzoyl-TN14003 injected at a dose of 0.9 mg/kg. […]

[3] = system: blood platelets; experiment: Chemotherapy (5FU)-induced thrombocytopenia model in mice; format: in vivo; conditions: for Levels of platelets in blood before and after 5FU: 5FU 150 mg/kg i.p. day 0, peptide 5 mg/Kg s.c. daily 5 days before and from day 1 after 5FU, G-CSF 5 μg/mouse daily from day 1, TPO 0.5 μg/mouse 3 days before 5FU, FIG. 4-6
Description: In the chemotherapy experiments 5-fluorouracil (5FU) at 150 mg/kg was dissolved in saline and injected intraperitoneally (on day 0). The mice were treated with 4F-benzoyl-TN14003 (5 mg/Kg) for 5 days or with TPO (0.5 μg/mouse) for 3 days before treatment with 5FU. 4F-benzoyl-TN14003 treated mice were further treated daily with 4F-benzoyl-TN14003 (5 mg/Kg) one day after 5FU administration and the treatment was continued until the end of the experiment. Blood samples were collected 1 hr following 4F-benzoyl-TN14003 administration or control (PBS) injection]; total blood counts were tested by American Medical Laboratories, Israel. In some experiments, G-CSF was s.c. injected daily, one day after 5FU administration until the end of the experiment, at final concentration of 5 μg/mouse in total volume of 0.2 ml.
The platelet modulating effects were then examined in a chemotherapy-induced thrombocytopenia model in mice. In these experiments, 5-fluorouracil (“5FU”) at 150 mg/kg dissolved in saline was injected intraperitoneally to all mice (on day 0). Some of the mice were further treated with 4F-benzoyl-TN14003 (5 mg/Kg, once daily S.C. injections) for 5 days before treatment with 5FU, and Mice were further treated daily with 4F-benzoyl-TN14003 (5 mg/Kg) one day after 5FU and the treatment was continued until the end of the experiment. Blood samples were collected 1 hr following administration of 4F-benzoyl-TN14003 or control (PBS) injection. […] In FIG. 4, diamonds represent control (PBS treated) mice; open squares represent 4F-benzoyl-TN14003 treated mice.
Next, the effect of the peptide on mice treated with 5FU with or without G-CSF was examined. G-CSF administration (as daily S.C. injections, 5 μg/mouse) was initiated one day after 5FU treatment and continued until the end of the experiment. 5FU and 4F-benzoyl-TN14003 administration and blood sample collection were as specified above for FIG. 4. […] In FIG. 5, diamonds represent control (PBS treated) mice; open squares represent 4F-benzoyl-TN14003 treated mice; triangles represent G-CSF treated mice; and crosses represent mice treated with G-CSF and 4F-benzoyl-TN14003.
The activity of the peptide in the chemotherapy-induced thrombocytopenia model was then compared to that of TPO. In the TPO group, mice were treated with a single dose of TPO (0.5 μg/mouse) for 3 days before treatment with 5FU. 5FU and 4F-benzoyl-TN14003 administration and blood sample collection were as specified above for FIG. 4. […] In FIG. 6, diamonds represent control (PBS treated) mice; open squares represent 4F-benzoyl-TN14003 treated mice; and triangles represent TPO treated mice.

[4] = system: hematopoietic precursor cells in the bone marrow; experiment: Hematopoietic progenitor cells (HPCs) colony-forming cell assay, bone marrow of treated mice; format: in vivo, C57BL/6 mice; conditions: bone marrow at day 5; colonies scored after seven days of culture; same regimens as Table 2
Description: as §1
In order to evaluate the number of progenitor cells in the Bone marrow, a colony-forming cell assay was used for the production of hematopoietic colonies following treatments. […] Seven days later, typical colonies were visually scored by morphologic criteria using a light microscope.

| Molecule | Blood platelet levels after a single injection ([1]; 5 mg/kg s.c., once daily or divided b.i.d., measured 1, 2 or 3 days later, FIG. 2) | Blood platelet levels in male and female mice ([1]; 5 mg/kg, measured 3 days post administration, FIG. 3) | Platelets (×10^3) [1] | Effect on TPO activity in enhancing platelets levels ([1]; combination with TPO, mice, FIG. 1) | Potency relative to TPO in stimulating production of platelets ([1]; healthy C57B1 mice) | % increase (platelet counts) [1] [%] | Time after administration at which platelet increase could be detected ([2]; 0.9 mg/kg single injection, MM patients) [min] | Number of platelets in the blood after single injection ([2]; 0.9 mg/kg, 10 days after Cyclophosphamide and G-CSF, still observed after 1, 2, 4 or 8 hours, FIG. 7) | Levels of platelets in blood before and after 5FU [3] | Platelet levels after 10 days of administration, compared with TPO and control ([3]; 5FU model, FIG. 6) | Potency relative to TPO in enhancing platelet levels and reducing chemotherapy-induced thrombocytopenia ([3]; thrombocytopenia induced by chemotherapy) | Colonies (HPC counts, colony forming cells in bone marrow) [4] |
| --- | --- | --- | --- | --- | --- | --- | --- | --- | --- | --- | --- | --- |
| 4F-benzoyl-Arg-Arg-Nal-Cys-Tyr-Cit-Lys-DLys-Pro-Tyr-Arg-Cit-Cys-Arg-NH2 [4F-benzoyl-TN14003] | significant elevation in blood platelet levels | enhanced blood platelet levels | 1551 ×10^3 | potentiates the activity of TPO in enhancing platelets levels in vivo | as potent as TPO | 32 | 30 | immediate increase in the number of platelets in the blood | enhanced the levels of platelets in blood before and after treatment with 5FU; also recorded: elevated blood platelet levels before or after 5FU administration | higher in 4F-benzoyl-TN14003-treated mice than in TPO-treated mice or control mice | more potent than TPO | 148.2 |
| Thrombopoietin [TPO] |  |  | 1556 ×10^3 |  |  | 32 |  |  | elevated blood platelet levels before or after 5FU administration |  |  | 150.2 |
| B1 |  |  |  |  |  |  |  |  | no effect on blood platelet levels; also recorded: had no effect on platelet levels |  |  |  |

Reference: patent publication US9427456B2, “Peptide therapy for increasing platelet levels” (Biokine Therapeutics Ltd., priority 2009, dated 2016)
